Bridges are numbered along the chain shown (N, C = ends). Roman numbers before positions name the chains, in order. Where no end group is shown, it is not given here.
Legend:
[1] = Acid-base titration of HK polymer solutions; assay type: physicochemical; conditions: pH titration curves, 5 mg/ml
Method: FIG. 2. Titration of different HK peptide solutions. Solutions of polymers (5 mg/ml) (H2K4b, H3K4b, H3K(+H)4b, and H4K4b) were adjusted to pH 3 (initial volume—1 ml) and then […] aliquots of 0.05 N NaOH were stepwise added and the pH measured.
Acid-Base Titration. After polymer solutions (e.g. containing one or more of H2K4b, H3K4b, H3K(+H)4b, and H4K4b) were adjusted to pH 3.0 (5 mg/mil; initial volume—1 mil), aliquots (5 μl) of NaOH (0.05 N) were stepwise added with the pH measured (FiveEasy™ meter; InLab Solids Pro-ISM pH electrode, Mettler Toledo, Columbus, OH). Titration was stopped at about pH 9.0.

mRNA = assay: Heparin displacement assays (gel electrophoresis and Sybr Gold dye intercalation); assay type: physicochemical; conditions: HK:mRNA 4:1 wt/wt
Method: FIG. 4. Heparin Displacement Assays. After HK polyplexes were formed (wt:wt; HK:mRNA; 4 μg:1 μg), different concentrations of heparin […] were incubated with these for 30 min. A. Gel Retardation. The HK polyplexes were loaded on the agarose gel (1%), and electrophoresis was carried out and stained with Sybr Gold. B. Fluorescent dye intercalation. After the HK polyplexes were formed and incubated with several concentrations of heparin, the Sybr Gold nucleic acid dye was incubated with the HK polyplexes for 5 mins. Fluorescence was then measured by a microplate fluorimeter (λex=497 nm, λem=520 nm) (SynergyMx, BioTek). *, P<0.05; ***, P<0.001; H3K4b or H2K vs. H3K(+H)4b.
Heparin Displacement Assays. Heparin displacement assays of HK polyplexes were done with the dye intercalation assay and with gel electrophoresis. A fluorescent assay assessed polyplexes of HK polymer and mRNA (4:1 wt/wt ratio; polymer:mRNA) formed in RNAse/DNAase free water (Corning, Manassas, VA). HK polyplexes were prepared as described previously, followed by the addition of diluted Syber Gold. For detection, working dilutions of the polyplexes (1/5 of volume), water (3/5) and Sybr Gold dye (1/5, 0.2×) were incubated for 5 minutes, and fluorescence was measured by a fluorimeter (Ex=497 nm, Em=520 nm) (SynergyMx, BioTek, Winooski, VT). The control sample was prepared with the same amount of mRNA, water, and Sybr Gold dye. For the heparin displacement, instead of water, heparin salt (Sigma-Aldrich, St. Louis, MO) solutions at different concentrations (0.5, 1, 1.5, 2, 3 μg/μl) were used, and the HK polyplexes were incubated at 37° C. for 30 min before addition of Sybr Gold.
Displacement of mRNA from HK polyplexes with heparin was also done with gel electrophoresis. After HK polyplexes were formed, different concentrations of heparin (0.5, 1.0, 1.5, 2.0, 3.0 μg/μl; volume 20 μl) were incubated with these at 37° C. for 30 min. The polyplexes were then loaded on the agarose gel (1%; 10× BlueJuice Gel loading buffer), and electrophoresis was carried out and stained with SG as described above. […]

cytokines = conditions: in vitro and in vivo; prior study [45]; cited from earlier work
MDA-MB-231 cells = assay: In vitro mRNA transfection with HK polyplexes (luciferase mRNA, luciferase activity); assay type: cell-based; conditions: mRNA 1 μg, 24 h
Method: FIG. 1. Comparison of H3K(+H)4b and H3K4b peptides as carriers of mRNA. To form the HK polyplexes, the mRNA (1 μg) was mixed with 3 different ratios of the HK ([…]) polymer for 30 minutes. The HK polyplexes were then added to the cells for 24 h before the luciferase activity was measured. ****, H3K(+H)4b vs H3K4b, P<0.0001.
In vitro mRNA Transfection. Several HK polymers were examined for their ability to carry a luciferase-expressing mRNA (CleanCap Firefly Luciferase mRNA, Trilink Biotechnologies, Inc, San Diego, CA) into MDA-MB-231 cells (America Type Tissue Culture, Manassas, VA). In brief, 3×10^4 cells were plated into a 24-well plate containing 500 μl of DMEM and 10% fetal bovine serum (ThermoFisher Scientific, Waltham, MA). After 24 h, when the cells were 60 to 80% confluent, the media in each well was changed to Opti-MEM (ThermoFisher Scientific). To prepare HK polyplexes, mRNA (1 μg) in 50 μl of Opti-MEM was briefly mixed well with one of the HK polymers (4 to 12 μg) and maintained at room temperature for 30 min. This polyplex was then added dropwise to the cells. After four h, the Opti-MEM media was removed and replaced with 0.5 ml of DMEM/10% serum (0.5 ml). Twenty-four hours later, the cells were lysed, and the luciferase activity (Promega Corporation, Madison, WI) was measured.
To obtain the data in Table 4, luciferase-expressing mRNA (1 μg) in 50 μl of Opti-MEM was briefly mixed with one of the HK polymers (4, 8, or 12 μg) and maintained at room temperature for 30 min. The resulting polyplexes were added dropwise to the MDA-NM-231 cells and after four h, the Opti-MEM media was removed and replaced with DMEM/10% serum. Twenty-four hours later, the cells were lysed, and the luciferase activity was measured

[2] = prior studies [34, 35, 45]; cited from earlier work
[3] = Particle size, polydispersity index (PDI) and zeta potential of polyplexes (Zetasizer); assay type: physicochemical
Method: Particle size, polydispersity index (PDI), and zeta potential. The size, PDI, and zeta potential were determined with the Zetasizer (Malvern, Westborough, Mass.) and analyzed with software provided by the instrument manufacturer (Zetasizer software, version 6.2). Using dynamic light scattering at a 90° angle, the size of the particles were reported as the Z-average diameter from the intensity-weighted size distribution. Prior to the measurements, the samples were equilibrated to 25° C. for 2 min. Each measurement had at least ten sub-runs under the automatic mode of the software. The particle size, PDI, and zeta potential data point represent the mean±SD of three measurements. After mixing HK peptides (4 μg) and mRNA (1 μg) in 100 μl of defined media (Opti-MEM, water, or DMEM/8% FBS) for 30 min, 100 μl of additional defined media was added to the polyplex solution (total volume 200 μl) to measure the size and PDI. To determine the zeta potential, 800 μl more of the media was added (total volume 1000 μl), mixed gently, and then added to the disposable zeta cell.
Because different stabilities were observed between the H3K4b and H3K(+H)4b polyplexes, whether the sizes of these polyplexes varied based on the media in which they were prepared was investigated. […] H3K(+H)4b and H3K4b peptides (4 μg) in complex with mRNA (1 μg) were mixed with either Opti-MEM, water, or DMEM/8% FBS […]. After 1 h, the size, PDI, and zeta potential were measured.

[4] = Cell viability assay (trypan blue exclusion); assay type: cell-based; conditions: human, MDA-MB-231 cells, HK polymer 4 μg or polyplex (4 μg HK; 1 μg mRNA), then 19 h DMEM/10% FBS
Method: Cell Viability Assay. MDA-MB-231 cells were seeded at 5.0×10^4/well in a 24-tissue culture plate and incubated overnight in DMEM supplemented with 10% FBS serum. The media was then changed to Opti-MEM and the cells were treated with either the HK polymer (4 μg) or the HK polyplex (4 μg HK; 1 μg mRNA) for 5 h. After the media was changed to DMEM/10% FBS for 19 h, the cell viability was measured using the trypan blue cell exclusion assay (Trypan Blue solution, 0.4%, Sigma-Aldrich, St. Louis, MO).
After the medium was changed to Opti-MEM in cell cultures of the MDA-MB-231 cells used in the experiment described above, either the HK polymer (4 μg) or the HK polyplex (4 μg HK; 1 μg mRNA) was added dropwise to the cells and incubated for 5 h. The media was then changed to DMEM/10% FBS for 19 h and cell viability was determined using the trypan cell exclusion assay.

[5] = polyplex HK 4 μg:mRNA 1 μg in DMEM/8% FBS
[6] = polyplex HK 4 μg:mRNA 1 μg in Opti-MEM
[7] = polyplex HK 4 μg:mRNA 1 μg in Water

Q: Which “buffering profile / buffering capacity (in words)” value [1] does the source give for “I: KHHHKHHHKHHHKHHHKKKK-NH2 / II: KHHHKHHHKHHHKHHHK / III: KHHHKHHHKHHHKHHHK / IV: KHHHKHHHKHHHKHHHK (amide I:18-IV:C, I:19-III:C, I:20-II:C) [H3K4b]” here?
A: minimal differences in their buffering profile

Q: What about the “binding/release of mRNA and polyplex stability on exposure to heparin (in words)” value (mRNA) of the same substance?
A: released by the H3K4b polymer more readily than the H3K(+H)4b polymer

Q: What about the “cytokine induction by siRNA polyplex (in words)” value (cytokines) of the same substance?
A: induced cytokines to a significantly greater degree

Q: And the “RLU/μg-Protein (luciferase activity)” value (MDA-MB-231 cells; ratio mRNA:polymer 1:4 (wt:wt))?
A: 156.8 ± 41.8 RLU/μg-Protein

Q: What about the “RLU/μg-Protein (luciferase activity)” value (MDA-MB-231 cells; ratio mRNA:polymer 1:8 (wt:wt)) of the same substance?
A: 62.1 ± 13.2 RLU/μg-Protein

Q: And the “RLU/μg-Protein (luciferase activity)” value (MDA-MB-231 cells; ratio mRNA:polymer 1:12 (wt:wt))?
A: 18.1 ± 4.0 RLU/μg-Protein

Q: What about the “carrier of siRNA (in words)” value [2] of the same substance?
A: effective carriers of siRNA

Q: And the PDI [3, 5]?
A: 0.421

Q: And the Size [3, 5]?
A: 578 ± 80.5 nm

Q: And the “Zeta Potential” value [3, 5]?
A: −12.1 ± 2.22 mV

Q: What about the PDI [3, 6] of the same substance?
A: 0.466

Q: What about the Size [3, 6] of the same substance?
A: 2030.7 ± 117.3 nm

Q: What about the “Zeta Potential” value [3, 6] of the same substance?
A: −4.20 ± 2.78 mV

Q: What about the PDI [3, 7] of the same substance?
A: 0.171

Q: And the Size [3, 7]?
A: 199.9 ± 0.8 nm

Q: And the “Zeta Potential” value [3, 7]?
A: 16.47 ± 0.74 mV

Q: And the viability at 5 h [4]?
A: 95.6%

— patent US20230313181A1, “HISTIDINE-LYSINE POLYMERS AND METHODS FOR DELIVERING MRNA USING THE SAME” (UNIVERSITY OF MARYLAND, BALTIMORE, priority 2019, published 2023)
